Measurements from article PMC3879575, “Evidence That GH115 α-Glucuronidase Activity, Which Is Required to Degrade Plant Biomass, Is Dependent on Conformational Flexibility” (The Journal of Biological Chemistry, 2013).

Legend:
BoAgu115A (BACOVA_03449) [1] = molecular target: T1, BoAgu115A (BACOVA_03449) (Bacteroides ovatus, UniProt A0ABU3IS40); experiment: coupled alpha-D-glucuronidase assay kit, NADH at […] nm; assay type: biochemical; conditions: PC buffer (50 mM sodium phosphate, 12 mM citrate) pH 6.5, 1 mg/ml BSA, 37 °C
T1 construct: mature form (signal peptide removed), N-terminal His6 tag (pET28a), E. coli BL21 DE3, 824 residues, 85 kDa, homodimer; modelled residues 33-856

[2] = molecular target: BoAgu115A (BACOVA_03449), GH115 α-glucuronidase of Bacteroides ovatus (Bacteroides ovatus); experiment: AUC; sedimentation velocity, interference optics, 48,000 rpm, 20 °C, sample volume 400 μl
BoAgu115A (BACOVA_03449) [3] = molecular target: T1, BoAgu115A (BACOVA_03449); experiment: X-ray crystal structure, […] Å; assay type: binding; conditions: crystals soaked with 300 mM GlcA; pH 5.5; active site; open-chain form

CO[C@H]1[C@H](O)[C@@H](O)[C@@H](O[C@H]2[C@H](O[C@@H]3CO[C@@H](O[C@@H]4COC(O)[C@H](O)[C@H]4O)[C@H](O)[C@H]3O)OC[C@@H](O[C@@H]3OC[C@@H](O)[C@H](O)[C@H]3O)[C@@H]2O)O[C@@H]1C(=O)O (stereo partly shown) [XUXX]
Km (BoAgu115A (BACOVA_03449) [1]): 4.5 mM

UXX
Km (BoAgu115A (BACOVA_03449) [1]): 19.5 mM

BoAgu115A (BACOVA_03449), GH115 α-glucuronidase of Bacteroides ovatus (enzyme)
stoichiometry N [2]: 2

O=C[C@H](O)[C@@H](O)[C@H](O)[C@H](O)C(=O)O [GlcA]
X-ray crystal structure, 2.14 Å (BoAgu115A (BACOVA_03449) [3]): BoAgu115A was co-crystallized with GlcA, which revealed electron density for the uronic acid
